Laboratory results reported in US7157487B2, “Vla-4 inhibitors” (Daiichi Pharmaceutical Co., Ltd., priority 2000, dated 2007).

Key:
[1] = molecular target: T1, integrins haα4 and β1 (VLA-4) expressed on CHO cells (Homo sapiens, UniProt P05556+P13612); assay: In vitro Evaluation Test (1): binding of Eu3+-hVCAM-1 D1D7-IgG to CHO cells expressing integrins α4 and β1; settings: inhibition of Eu3+-hVCAM-1 D1D7-IgG binding to CHO cells expressing α4β1; Ki calculated from IC50
T1 construct: expressed in transfected cells; host or cells: CHO cells
Summary of the method: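 CHO cells transduced with human α4 and β1 were grown for 2 days. They were incubated 1 h at room temperature with Eu3+-hVCAM-1 D1D7-IgG (diluted to 2 nM before addition) and compound, with or without 6% HSA, in HEPES pH 7.5 containing Ca2+, Mg2+ and 4 mM Mn2+. Time-resolved fluorescence gave IC50; Ki used a Scatchard-derived Kd (0.06–20 nM).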

[2] = Evaluation of oral bioavailability by mouse bioassay; assay type: in vivo; settings: 10 mg/kg oral, female Balb/C mice, serum 15 minutes after administration, read-out: Blood level
Procedure: A test compound was suspended or dissolved in a proper administration medium to give a concentration of 1 mg/ml. To 7 to 9 week old female Balb/C mice, 10 mg/kg of the resulting suspension or solution was orally administered. Fifteen minutes after the administration, blood was collected from the postcava under anesthesia with ether and the serum was separated from it. The concentration of each test compound was determined by estimating the serum level from a calibration curve obtained with VCAM-1/VLA-4 inhibitory activity as an index or measuring the concentration by using LC/MS/MS.

T1 sequence (P13612 34-1032): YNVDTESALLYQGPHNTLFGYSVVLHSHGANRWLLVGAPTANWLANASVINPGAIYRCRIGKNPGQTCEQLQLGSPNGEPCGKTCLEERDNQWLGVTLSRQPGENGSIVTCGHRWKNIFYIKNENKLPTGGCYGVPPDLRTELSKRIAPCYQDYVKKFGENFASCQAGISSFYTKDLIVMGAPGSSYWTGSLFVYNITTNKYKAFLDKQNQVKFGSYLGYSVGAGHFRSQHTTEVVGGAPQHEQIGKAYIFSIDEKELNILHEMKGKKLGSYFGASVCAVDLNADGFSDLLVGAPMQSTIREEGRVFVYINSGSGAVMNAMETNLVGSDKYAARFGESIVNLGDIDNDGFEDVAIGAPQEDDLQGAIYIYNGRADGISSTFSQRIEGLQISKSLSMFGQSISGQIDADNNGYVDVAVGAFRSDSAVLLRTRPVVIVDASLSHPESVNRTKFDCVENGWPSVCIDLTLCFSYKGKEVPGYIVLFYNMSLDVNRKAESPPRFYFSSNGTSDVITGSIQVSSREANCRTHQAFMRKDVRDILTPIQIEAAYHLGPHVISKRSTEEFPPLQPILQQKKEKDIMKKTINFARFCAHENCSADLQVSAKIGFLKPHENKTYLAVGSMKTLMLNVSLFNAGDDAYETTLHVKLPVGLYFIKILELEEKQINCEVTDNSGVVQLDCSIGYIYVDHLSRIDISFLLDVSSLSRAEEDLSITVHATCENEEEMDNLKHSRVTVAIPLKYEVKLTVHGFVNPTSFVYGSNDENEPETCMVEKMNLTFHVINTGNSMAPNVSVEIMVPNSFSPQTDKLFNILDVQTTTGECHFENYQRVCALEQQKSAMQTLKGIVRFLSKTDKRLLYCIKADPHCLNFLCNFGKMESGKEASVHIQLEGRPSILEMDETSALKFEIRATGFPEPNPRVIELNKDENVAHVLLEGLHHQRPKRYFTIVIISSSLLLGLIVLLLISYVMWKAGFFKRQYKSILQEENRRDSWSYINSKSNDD
T1 sequence (P05556 21-798): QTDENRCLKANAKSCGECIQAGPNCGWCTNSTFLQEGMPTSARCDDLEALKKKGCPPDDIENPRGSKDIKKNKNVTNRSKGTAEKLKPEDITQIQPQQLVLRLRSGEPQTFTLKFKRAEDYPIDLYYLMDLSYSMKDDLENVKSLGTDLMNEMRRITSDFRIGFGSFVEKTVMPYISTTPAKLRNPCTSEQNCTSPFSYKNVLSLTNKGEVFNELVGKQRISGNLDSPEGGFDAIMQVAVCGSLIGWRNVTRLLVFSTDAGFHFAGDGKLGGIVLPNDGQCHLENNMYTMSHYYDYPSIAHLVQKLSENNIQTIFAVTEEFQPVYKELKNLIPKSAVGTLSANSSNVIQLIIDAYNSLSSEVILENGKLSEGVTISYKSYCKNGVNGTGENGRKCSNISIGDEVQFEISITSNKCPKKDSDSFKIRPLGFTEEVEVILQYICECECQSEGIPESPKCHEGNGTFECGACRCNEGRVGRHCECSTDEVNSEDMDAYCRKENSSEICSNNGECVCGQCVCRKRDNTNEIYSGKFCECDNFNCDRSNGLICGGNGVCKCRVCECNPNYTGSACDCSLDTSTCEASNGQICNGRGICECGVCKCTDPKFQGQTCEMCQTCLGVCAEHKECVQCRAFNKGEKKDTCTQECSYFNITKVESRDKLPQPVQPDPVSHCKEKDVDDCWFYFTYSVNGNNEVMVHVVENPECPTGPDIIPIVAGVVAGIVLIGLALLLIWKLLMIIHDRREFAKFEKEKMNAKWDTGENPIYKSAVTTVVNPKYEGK

SMILES | Ki [1] [µM] | concentration at 15 min [2] [ng/mL]
O=C(Nc1ccc(CC(=O)N2C[C@@H](F)C[C@H]2CO[C@H]2CC[C@H](C(=O)O)CC2)cc1Cl)N1CCc2ccc(F)cc21 [Example 92] | 0.0027 | 1990
Cn1cc(C(=O)Nc2cc(F)c(CC(=O)N3C[C@@H](F)C[C@H]3CO[C@H]3CC[C@H](C(=O)O)CC3)cc2Cl)c2ccccc21 [Example 65, trans-4-(1-((5-Chloro-2-fluoro-4-((1-methyl-3-indolylcarbonyl)amino)phenyl)acetyl)-(4S)-fluoro-(2S)-pyrrolidinylmethoxy)cyclohexanecarboxylic acid] | 0.004 | 11500
CS[C@H]1C[C@@H](CO[C@H]2CC[C@H](C(=O)O)CC2)N(C(=O)Cc2cc(Cl)c(NC(=O)c3cn(C)c4ccccc34)cc2F)C1 [Example 125, trans-4-(1-((5-Chloro-2-fluoro-4-((1-methyl-3-indolylcarbonyl)amino)phenyl)acetyl)-(4S)-methylthio-(2S)-pyrrolidinylmethoxy)cyclohexanecarboxylic acid] | 0.0065 | 2570
O=C(Nc1ccc(CC(=O)N2C[C@@H](F)C[C@H]2CO[C@H]2CC[C@H](C(=O)O)CC2)cc1Cl)c1nsc2ccccc12 [Example 83, trans-4-(1-(3-Chloro-4-((3-benzo(d)isothiazolylcarbonyl)amino)phenylacetyl)-(4S)-fluoro-(2S)-pyrrolidinylmethoxy)cyclohexanecarboxylic acid] | 0.0019 | 1540
CO[C@@H]1C[C@@H](CO[C@H]2CC[C@H](C(=O)O)CC2)N(C(=O)Cc2cc(Cl)c(NC(=O)c3cn(C)c4ccccc34)cc2F)C1 [Example 115, trans4-(1-((5-chloro-2-fluoro-4-(1-methyl-3-indolylcarbonylamino)phenyl)acetyl)-(4R)-methoxy-(2S)-pyrrolidinylmethoxy)cyclohexanecarboxylic acid] | 0.03 | 888
Cc1ccccc1Nc1nc2ccc(CC(=O)N3C[C@H](O)C[C@H]3CO[C@H]3CC[C@H](C(=O)O)CC3)cc2o1 [Example 122, trans-4-((4R)-Hydroxy-1-((2-(2-methylphenylamino)-6-benzoxazolyl)acetyl)-(2S)-pyrrolidinylmethoxy)cyclohexanecarboxylic acid] | 0.029 | –
COc1cc(CC(=O)N2C[C@@H](F)C[C@H]2CO[C@H]2CC[C@H](C(=O)O)CC2)c(F)cc1NC(=O)c1cn(C)c2ccccc12 [Example 76, trans-4-((4S)-Fluoro-1-(2-fluoro-5-methoxy-4-((1-methyl-1H-3-indolylcarbonyl)amino)phenylacetyl)-(2S)-pyrrolidinylmethoxy)cyclohexanecarboxylic acid] | 0.0016 | –
O=C(Nc1ccc(CC(=O)N2C[C@@H](F)C[C@H]2COC2CCC(C(=O)O)CC2)cc1Cl)c1c[nH]c2ccccc12 (stereo partly drawn) [Example 38, 4-(1-(3-Chloro-4-(3-indolylcarbonylamino)phenylacetyl)-(4S)-fluoro-(2S)-pyrrolidinylmethoxy)cyclohexanecarboxylic acid] | 0.00043 | –
O=C(Nc1ccc(CC(=O)N2C[C@@H](F)C[C@H]2CO[C@H]2CC[C@H](C(=O)O)CC2)cc1Cl)c1nccc2ccc(F)cc12 [Example 82, trans-4-(1-((3-Chloro-4-((7-fluoro-1-isoquinolinylcarbonyl)amino)phenyl)acetyl)-(4S)-fluoro-(2S)-pyrrolidinylmethoxy)cyclohexanecarboxylic acid] | 0.018 | –
Cn1cc(C(=O)Nc2cc(F)c(CC(=O)N3C[C@@H](S(C)(=O)=O)C[C@H]3CO[C@H]3CC[C@H](C(=O)O)CC3)cc2Cl)c2ccccc21 [Example 128, trans-4-(1-((5-Chloro-2-fluoro-4-((1-methyl-3-indolylcarbonyl)amino)phenyl)acetyl)-(4S)-methanesulfonyl-(2S)-pyrrolidinylmethoxy)cyclohexanecarboxylic acid] | 0.0027 | –
Cc1ccccc1Nc1nc2ccc(CC(=O)N3C[C@@H](F)C[C@H]3C(=O)N3CCC(CC(=O)O)CC3)cc2o1 [Example 31, 1-((4S)-Fluoro-1-(2-(2-methylphenylamino)-6-benzoxazolylacetyl)-(2S)-pyrrolidinylcarbonyl)-4-piperidinylacetic acid] | 0.016 | –
CS[C@H]1C[C@@H](CO[C@H]2CC[C@H](C(=O)O)CC2)N(C(=O)Cc2ccc3nc(Nc4cc(F)ccc4C)oc3c2F)C1 [Example 126, trans-4-(1-((2-(5-Fluoro-2-methylphenylamino)-7-fluoro-6-benzoxazolyl)acetyl)-(4S)-methylthio-(2S)-pyrrolidinylmethoxy)cyclohexanecarboxylic acid] | 0.002 | –
Cc1ccccc1Nc1nc2ccc(CC(=O)N3C[C@@H](F)C[C@H]3COc3ccc(C(=O)O)cc3)c(F)c2o1 [Example 6, 4-((2S,4S)-1-(7-Fluoro-2-(2-methylphenylamino)-6-benzoxazolylacetyl)-4-fluoro-2-pyrrolidinylmethoxy)benzoic acid] | 0.014 | –
Cc1ccccc1Nc1nc2ccc(CC(=O)N3C[C@@H](F)C[C@H]3C(=O)N3CCN(CC(=O)O)CC3)cc2o1 [Example 30, 4-((4S)-Fluoro-1-(2-(2-methylphenylamino)-6-benzoxazolylacetyl)-(2S)-pyrrolidinylcarbonyl)-1-piperazinylacetic acid] | 0.04 | –
O=C(O)c1ccc(OC[C@@H]2C[C@H](F)CN2C(=O)Cc2ccc3nc(Nc4ccccc4)oc3c2)cc1 [Example 1] | 0.03 | –
Cn1cc(-c2nc3ccc(CC(=O)N4C[C@@H](F)C[C@H]4CO[C@H]4CC[C@H](C(=O)O)CC4)c(F)c3o2)c2cc(F)ccc21 (relative stereo) [Example 101, trans-4-(1-((2-(5-Fluoro-1-methyl-3-indolyl)-7-fluoro-6-benzoxazolyl)acetyl)-(4S)-fluoro-(2S)-pyrrolidinylmethoxy)cyclohexanecarboxylic acid] | 0.0081 | –

Second part, the compound after the results:

Ki [1] [µM] | concentration at 15 min [2] [ng/mL] | SMILES
0.0054 | 2500 | C[C@H]1CC[C@@H](CO[C@H]2CC[C@H](C(=O)O)CC2)N1C(=O)Cc1cc(Cl)c(NC(=O)c2cn(C)c3ccccc23)cc1F [Example 136, trans-4-(1-((5-chloro-2-fluoro-4-((1-methyl-3-indolyl)carbonylamino)phenyl)acetyl)-(5S)-methyl-(2S)-pyrrolidinylmethoxy)cyclohexanecarboxylic acid]
0.016 | 21800 | CO[C@H]1CCN(C(=O)Cc2cc(Cl)c(NC(=O)c3nn(C)c4ccccc34)cc2F)[C@@H]1CO[C@H]1CC[C@H](C(=O)O)CC1 [Example 169, trans-4-(1-((5-Chloro-2-fluoro-4-((1-methyl-3-indazolylcarbonyl)amino)phenyl)acetyl)-(3S)-methoxy-(2R)-pyrrolidinylmethoxy)cyclohexanecarboxylic acid]
0.0043 | 3360 | CO[C@H]1C[C@@H](CO[C@H]2CC[C@H](C(=O)O)CC2)N(C(=O)Cc2cc(Cl)c(NC(=O)c3cn(C)c4ccccc34)cc2Cl)C1 [Example 170, trans-4-(1-(2,5-Dichloro-4-((1-methyl-1H-3-indolylcarbonyl)amino)phenylacetyl)-(4S)-methoxy-(2S)-pyrrolidinylmethoxy)cyclohexanecarboxylic acid]
0.043 | – | COC[C@@H]1C[C@@H](O[C@H]2CC[C@H](C(=O)O)CC2)CN1C(=O)Cc1ccc2nc(Nc3cc(F)ccc3C)oc2c1F [Example 156, trans-4-(1-((2-(5-Fluoro-2-methylphenylamino)-7-fluoro-6-benzoxazolyl)acetyl)-(2S)-methoxymethyl-(4R)-pyrrolidinyloxy)cyclohexanecarboxylic acid]
0.017 | – | Cn1cc(C(=O)Nc2cc(F)c(CC(=O)N3CC(F)(F)C[C@H]3CO[C@H]3CC[C@H](C(=O)O)CC3)cc2Cl)c2ccccc21 (mixture of isomers) [Example 143, trans-4-(1-(5-Chloro-2-fluoro-4-(1-methyl-3-indolylcarbonylamino)phenylacetyl)-4,4-difluoro-(2S)-pyrrolidinylmethoxy)cyclohexanecarboxylic acid and cis-4-(1-(5-chloro-2-fluoro-4-(1-methyl-3-indolylcarbonylamino)phenylacetyl)-4,4-difluoro-(2S)-pyrrolidinylmethoxy)cyclohexanecarboxylic acid]
0.018 | – | Cc1ccc(F)cc1Nc1nc2ccc(CC(=O)N(C)[C@@H](C)CO[C@H]3CC[C@H](C(=O)O)CC3)c(F)c2o1 [Example 145, trans-4-((2S)-((7-Fluoro-2-((5-fluoro-2-methylphenyl)amino)-6-benzoxazolyl)-N-methylacetamido)-1-propoxy)-1-cyclohexanecarboxylic acid]
0.048 | – | C[C@@H](CO[C@H]1CC[C@H](C(=O)O)CC1)N(C)C(=O)Cc1cc(Cl)c(NC(=O)c2cn(C)c3ccccc23)cc1F [Example 144, trans-4-((2S)-((5-Chloro-2-fluoro-4-(1-methyl-3-indolylcarbonylamino)phenyl)-N-methylacetamido)-1-propoxy)-1-cyclohexanecarboxylic acid]
0.019 | – | C[C@H]1C[C@@H](CO[C@H]2CC[C@H](C(=O)O)CC2)N(C(=O)Cc2cc(Cl)c(NC(=O)c3nn(C)c4ccccc34)cc2F)C1 [Example 135, trans-4-(1-(5-Chloro-2-fluoro-4-((1-methyl-1H-3-indazolylcarbonyl)amino)phenylacetyl)-(4S)-methyl-(2S)-pyrrolidinylmethoxy)cyclohexanecarboxylic acid]
